Results reported in patent US20130142734A1, “TARGETED DELIVERY SYSTEMS FOR DIAGNOSTIC APPLICATIONS” (priority 2010, published 2013).
Values joined by “and” are separate entries in the source; they are usually repeats but may differ in a detail not shown here. Equal values may be shown once. Ends that are not written are not given here.

How the values were obtained:
[1] = Emission spectrum and fluorescence intensity of NIR dyes; type: physicochemical; settings: excitation at 650 nm
Protocol: FIG. 1 depicts the emission spectrum for NIR Dyes (ICG, IR-783, and 783-S-Ph-COOH) following excitation at 650 nm (A) and 690 nm (B).
Fluorescence intensity of the NIR dyes was evaluated as well, following excitation at 650 nm (FIG. 2A).

P-(GGFLGK-IR783)2.5% = system: T1, P-(GGFLGK-IR783)2.5%
T1 sequence: GGFLGK

P-(GGFLGK-IR783)5% = system: T2, P-(GGFLGK-IR783)5%
T2 sequence: GGFLGK

P-(GGFLGK-IR783)7.5% = system: T3, P-(GGFLGK-IR783)7.5%
T3 sequence: GGFLGK

[2] = Effect of dye loading on fluorescence intensity and quenching of HPMA copolymer-IR783 conjugates; type: physicochemical; settings: dissolved in DDW; Ex: 690 nm, Em: 820 nm
Protocol: HPMA conjugates of various IR-783-S-Ph-COOH loadings were dissolved in DDW and their fluorescence intensity (Ex: 690 nm, Em: 820 nm). […] These observations confirm the decrease in fluorescence intensity with increasing the loading of IR-783-S-Ph-COOH on p-HPMA copolymer due to the quenching of fluorescent signal.
The effect of NIR813 loading on p-HPMA-NIR813 quenching efficiency is shown in FIG. 3 and a complete quenching was achieved when the loading level of IR-783 on P—HPMA-IR-783 was 15%.

Cathepsin B = Cathepsin B (Homo sapiens, UniProt P07858); experiment: Cathepsin B degradation of the linker (fluorescence activation); type: biochemical; settings: after 22 h of incubation; Cathepsin B 1.5 U, sodium acetate buffer pH 5.5
Protocol: 0.5 mg polymer was dissolved in 1 ml sodium acetate buffer (pH=5.5). Cathepsin B (1.5 U) was added to the solution and incubate for 24 hours at 370 C. The fluorescence intensity (excitation 650 nm & 690 nm, emission range 820 nm) was measured every 30 minutes.
The effects of IR-783-S-Ph-COOH loading on CB mediated fluorescence activation was tested.

SW-480 cells [3] = experiment: Imaging of orthotopically implanted SW-480 colon tumors in nu/nu athymic mice; type: in vivo; settings: for time post injection of accumulation in tumor area: 2 mg i.v., orthotopic SW-480 tumors
Protocol: Three types of mouse models were employed to test the ability of the probes to detect solid tumors in the GI tract.
Nu/nu athymic mice were injected orthotopically into the descending colon of female with SW-480 cells. After tumors reached ˜0.5 cm in diameter, mice were injected i.v. with 2 mg of IR-783 bearing polymeric probe. The results in the orthotopically implanted tumors confirm the accumulation of both P-(GGFLGK (SEQ ID NO: 11)-IR783)2.5% and P-(GGFLGK (SEQ ID NO: 11)-IR783)7.5% polymeric probes in tumor area about 4 h post injection and retention at the tumor site for at least 48 h.
Biodistribution analysis indicated the presence of the probe in the tumor, kidneys, galbladder and the urine. The T/B ratio following whole body imaging (WBI) was 2.4 in mice treated with P-(GGFLGK (SEQ ID NO: 11)-IR783)7.5%, 4 h post injection (FIG. 6). […] The calculated ratio of the average fluorescence efficiency between colon and tumor tissue was ˜9 (FIG. 7).

SW-480 cells [4] = experiment: Imaging of rectally implanted SW-480 tumors in female mice; type: in vivo
Protocol: The ability of the probe to detect solid tumors in female mice bearing rectally tumors injected with SW-480 cells was tested. The mice were injected with 0.2 mg/200 μl of P-(GGFLGK (SEQ ID NO: 11)-IR783)2.5% and the whole body was imaged 4 and 24 h post injection. […] However images from excised organs taken 24 h post injection indicated a 4-fold increase in the average fluorescence efficiency between colon and tumor tissue (FIG. 8A).

HT-29 cells = experiment: Imaging of rectal HT-29 tumors in female mice; type: in vivo
Protocol: The ability of the probe to detect solid tumors in female mice bearing rectal tumors introduced via injection with HT-29 cells was also evaluated. After tumors reached ˜0.5 cm in diameter, mice were injected i.v. with 2 mg of IR-783 bearing polymeric probe. Mice were kept in metabolic cages throughout the experiment (48 h). The mice were injected with 1 mg/200 μl of P-(GGFLGK (SEQ ID NO: 11)-IR783)7.5% (CB cleavable linker) and the whole body was imaged 4, 24 and 48 h post injection. […] In images from excised organs taken 24 h post injection indicated only 1.5-fold increase in the average fluorescence efficiency between colon and tumor tissue (T/C) (1.64 and 1.3-fold of increase, FIG. 9b and FIG. 10b, respectively), due to the high background fluorescence along the gastrointestinal tract (stomach, colon and […]), even though treated in metabolic cages. Once the tumor to heart ratio (T/H) was measured, an increased of about 8-10-fold was calculated. When mice were injected with the polymeric probe with non-cleavable linker P-(AP-IR783)7.5%, and the whole body was imaged 4 post injection, the T/B ratio was 1.3.

Question: For CC1(C)C(/C=C/C=C/C=C/C=C2\N(CCCCS(=O)(=O)O)c3ccc4ccccc4c3C2(C)C)=[N+](CCCCS(=O)(=O)[O-])c2ccc3ccccc3c21 [ICG, indocyanine green], which maximal emission wavelength [1] is on record?
Answer: The maximal emission wavelength was 810 nm.

Question: With CC1(C)C(=CC=C2CCCC(C=CC3=[N+](CCCCS(=O)(=O)O)c4ccccc4C3(C)C)=C2Cl)N(CCCCS(=O)(=O)O)c2ccccc21.[OH-] [IR-783, 2-[2-[2-Chloro-3-[2-[1,3-dihydro-3,3-dimethyl-1-(4-sulfobutyl)-2H-indol-2-ylidene]-ethylidene]-1-cyclohexen-1-yl]-ethenyl]-3,3-dimethyl-1-(4-sulfobutyl)-3H-indolium hydroxide] as the molecule, how does the maximal emission wavelength [1] read?
Answer: Its maximal emission wavelength is 800 nm.

Question: With CC1(C)C(/C=C/C2=C(Sc3ccc(C(=O)O)cc3)C(=C/C=C3\N(CCCCS(=O)(=O)O)c4ccccc4C3(C)C)/CCC2)=[N+](CCCCS(=O)(=O)[O-])c2ccccc21 [IR-783-S-Ph-COOH] as the molecule, how does the maximal emission wavelength [1] read?
Answer: The maximal emission wavelength was 830 nm.

Question: For Cathepsin B, which “increase in signal intensity over time with Cathepsin B” value (P-(GGFLGK-IR783)2.5%) is on record?
Answer: Its value is “only 2-fold increase in signal intensity over time”.

Question: And the “increase in the (fluorescence) intensity after 22 h of incubation with Cathepsin B” value (P-(GGFLGK-IR783)5%)?
Answer: The value was 3.6-fold.

Question: What about the “increase in the (fluorescence) intensity after 22 h of incubation with Cathepsin B” value (P-(GGFLGK-IR783)7.5%) of the same molecule?
Answer: Its value is 4.9-fold.

Question: Which results are given for “P-(GGFLGK-IR783)2.5%: HPMA copolymer bearing IR-783-S-Ph-COOH via degradable GGFLGK linker, 2.5 mol % dye loading (not fully specified (N-terminus); also: IR-783-S-Ph-COOH dye attached, site not given here)”?
Answer: fluorescence intensity at λ=820 nm compared with copolymers of other dye loading [2]: highest fluorescence intensity; increase in fluorescence intensity following CB degradation (Cathepsin B): 2 fold; time post injection of accumulation in tumor area (SW-480 cells [3]): about 4 h; calculated ratio of the average fluorescence efficiency between colon and tumor tissue (SW-480 cells [3]; ex vivo, 48 h post injection, FIG. 7): ~9; Biodistribution analysis: accumulation (SW-480 cells [3]; mice sacrificed 48 h post injection): significant accumulation in the tumor, kidneys and gallbladder; T/B ratio in whole body imaging, 4 versus 24 h post injection (SW-480 cells [4]; 0.2 mg/200 μl): not significantly different; increase in the average fluorescence efficiency between colon and tumor tissue (SW-480 cells [4]; excised organs 24 h post injection, 0.2 mg/200 μl, FIG. 8A): 4 fold

Question: For “P-(GGFLGK-IR783)5%: HPMA copolymer bearing IR-783-S-Ph-COOH via degradable GGFLGK linker, 5% dye loading (not fully specified; also: conjugated to HPMA copolymer via GGFLGK linker)”, which “increase in fluorescence intensity following CB degradation” value (Cathepsin B) is on record?
Answer: The value was 3.6 fold.

Question: For “P-(GGFLGK-IR783)7.5%: HPMA copolymer bearing IR-783-S-Ph-COOH via degradable (CB cleavable) GGFLGK linker, 7.5% dye loading (not fully specified; also: conjugated to HPMA copolymer via GGFLGK linker)”, which “increase in fluorescence intensity following CB degradation” value (Cathepsin B) is on record?
Answer: Its value is 4.9 fold.

Question: What about the “time post injection of accumulation in tumor area” value (SW-480 cells [3]) of the same molecule?
Answer: The value was “about 4 h”.

Question: What about the “T/B ratio following whole body imaging (WBI)” value (SW-480 cells [3]; 4 h post injection, 2 mg, FIG. 6) of the same molecule?
Answer: Its value is 2.4.

Question: And the “ratio in the average fluorescence efficiency between colon and tumor tissue” value (SW-480 cells [4]; excised tumor harvested 48 h post injection, FIG. 8b)?
Answer: Its value is roughly 4.

Question: And the “tumor accumulation with time” value (SW-480 cells [4]; whole body imaging)?
Answer: The value was “slight increase”.

Question: What about the “T/B ratio in whole body imaging, 4 versus 24 h post injection” value (HT-29 cells; 1 mg/200 μl, HT-29 rectal model) of the same molecule?
Answer: The value was “not significantly different”.

Question: What about the “increase in the average fluorescence efficiency between colon and tumor tissue (T/C)” value (HT-29 cells; excised organs taken 24 h post injection, 1 mg/200 μl) of the same molecule?
Answer: Its value is 1.5 fold.

Question: And the “tumor to heart ratio (T/H)” value (HT-29 cells; excised organs, 1 mg/200 μl)?
Answer: Its value is 8-10 fold.

Question: What about the “increase in the average fluorescence efficiency between colon and tumor tissue (T/C), single figures” value (HT-29 cells; excised organs, FIG. 9b and FIG. 10b, respectively, listed as P-(GGFLGK (SEQ ID NO: 11)-IR783)7.5%) of the same molecule?
Answer: The value was 1.64 fold and 1.3 fold.
